Reference: patent US7026282B1, “Peptide antagonists of the human urokinase receptor and method for selecting them” (Cancerforskningsfonden AF 1989 (Fonden Til Fremme AF …, priority 1998, dated 2006)
Positions of bridges follow the written chain, without caps; N, C: chain ends. Non-standard residues stand in square brackets, D forms with d. Residues, ends and D or L forms follow the SMILES beside them. Chains are numbered I, II in the order given. No end group written: not given here. Cha = N[C@@H](CC1CCCCC1)C(=O)O; βAla = NCCC(=O)O

Tests used:
[1] = Mouse tolerance of peptide dosing; type: in vivo; settings: 4 i.p. injections 8 hours apart, 1.38 mg each, total 5.52 mg per mouse
Method: Mice were given a series of 4 intraperitoneal injections, spaced 8 hours apart, of peptide AE120 dispersed in a poloxamer formulation containing 2.9% DMSO. Each injection delivered 1.38 mg of peptide in 200 μL of formula, so that each mouse received a total of 5.52 mg over the 24-hour study period.

[2] = Pharmacokinetic experiment: functional peptide in mouse serum after i.p. injection; type: in vivo; settings: 62.5 mg/kg, 1 to 24 hours
Method: Female nu/nu-META/Bom mice were injected intraperitoneally (i.p) with a solution of the peptide AE 120 (6.25 mg/ml in 0.5% (w/v) poloxamer 237 in PBS, pH 7.3) at a dose of 62.5 mg/kg mouse weight. At different time points between 1 hour and 24 hours, blood was collected from anaesthetised mice by cardiac puncture. The blood samples were allowed to clot for 30 min at room temperature, followed by centrifugation at 1,000×g for 10 min at 20° C., and the sera were stored frozen at −80° C. prior to assay. The presence of functional peptide antagonists in serum was determined by diluting the serum samples 1:10 with binding buffer (0.1% bovine serum albumin and 5 mM Hepes in Eagles MEM supplemented with Glutamax-1, pH 7.4) and analysing the samples in cell binding experiments with MDA-MB-231 BAG cells and ^125I-labelled human ATF as described in Example 7. As an internal standard, AE120 was added exogenously to pooled mouse sera at final concentrations of 12.5 nM, 25 nM, 125 nM and 250 nM.

[3] = Peptide stability in mouse serum ex vivo, read out by ATF cell-binding inhibition; type: in vitro ADME; settings: 10% mouse serum, up to 24 hours, 37° C.
Method: Mouse blood was collected from anaesthetised mice (femal nu/nu-META/Bom (Bomholtgaard, Ry, Denmark)) by cardiac puncture. The blood samples were allowed to clot for 30 min at room temperature, followed by centrifugation at 1,000×g for 10 min at 20° C., and the sera were sterile filtered using 0.8 μm/0.2 μm filters (Acrodisc PF, Gelman Science, MI) and then stored at 4° C. until use. The peptide antagonists were added to fresh pooled mouse serum at the indicated concentrations (FIG. 5) and incubated at 37° C. for different periods, between 0 hours and 24 hours. Serum incubated samples were diluted 1:10 in binding buffer (0.1% bovine serum albumin and 5 mM Hepes in Eagles MEM supplemented with Glutamax-1, pH 7.4). Subsequently, cell binding experiments in the presence of ^125I-labelled human ATF were performed in duplicates as above, by preincubating MDA-MB-231 BAG cells at 37° C. 15 min with the 1:10 diluted serum incubated samples ± peptides. In parallel, peptides diluted in binding buffer alone were included as controls.
AE118 and AE78 (for comparison) were incubated at 37° C. in the presence of 10% mouse serum for different time intervals, up to 24 hours. The incubation mixtures were tested for their ability to inhibit binding of radio-labelled human uPA amino terminal fragment (ATF) to monolayer cultures of human MDA-MB-231 breast cancer cells, as described in Example 7.

[4] = target: T1, neuramimidase-treated human suPAR (soluble recombinant uPAR) (Homo sapiens, UniProt Q03405); assay: Biacore Binding Assay (surface plasmon resonance), ligand binding to immobilised suPAR; settings: for koff: Biacore, 5° C., immobilised suPAR, read-out: kdiss (dissociation rate constant, off-rate)
T1 construct: A soluble recombinant variant of human uPAR (suPAR) was expressed in Chinese hamster ovary (dhfr) cells; made in house; host or cells: Chinese hamster ovary (dhfr) cells
Method: Association rate constants (kass), dissociation rate constants (kdiss) and equilibrium binding constants (kd) for various synthetic peptides and receptor binding derivatives of human uPA were determined by surface plasmon resonance (R. Karlsson et al. (1991) J. Immunol. Meths. 145:229–240) using a BIAcore2000™ instrument (Pharmacia Biosensor, Uppsala, Sweden). Due to the low isoelectric point of uPAR (pI≈4.5) terminal sialic acid residues were removed from its N-linked carbohydrates to facilitate chemical immobilisation on the sensor chip. This was accomplished by incubating purified suPAR (1 mg/ml in 50 mM phosphate, 150 mM NaCl, pH 7.4) with 5 μg/ml neuramimidase for 4 hours at 37° C. […] Coupling of the neuramimidase-treated suPAR to a BIAcore sensor chip was achieved by injection of 20 μg/ml suPAR in 10 mM sodium acetate pH 5.0 for 6 minutes at a flow rate of […] per minute using a carboxymethylated dextran matrix (CM5 sensor chip) preactivated with N-hydroxysuccinimide/N-ethyl-N′-[3-([…])propyl]carbodiimide according to the manufacturer's recommendations. Approximately 1,500–2,000 resonance units (RU) were immobilised by this procedure (corresponding to 1–2 ng suPAR/mrn^2).
Sensorgrams (RU versus time) were recorded (FIG. 2) at a flow rate of 10 μl per min at 5° C. using several different concentrations of the ligand (synthetic peptides, uPA, the amino-terminal fragment (ATF) of uPA, or the growth factor domain (GFD) of uPA) in the range of 10 to 1000 nM in running buffer (10 mM HEPES, 150 mM NaCl, 3 mM EDTA (pH 7.4) including 0.005% surfactant P-20). Stock solutions of peptides from combinatorial chemistry were made in DMSO (10 mg peptide/ml DMSO). The sensor chip was regenerated at the end of each run by injection of 0.1 M acetic acid, 0.5 M NaCl. Data obtained from parallel mock coupled flow cells (subjected to the coupling procedure in the presence of buffer only) served as blank sensorgrams for subtraction of changes in bulk refractive index. The sensorgrams obtained were analysed by non-linear least squares fitting using BIAevaluation 2.0 software (Pharmacia Biosensor, Uppsala, Sweden) assuming single-site association and dissociation models.
Purified human suPAR (1 mg/ml in 50 mM phosphate, 150 mM NaCl, pH 7.4) was incubated with 5 μg/ml neuramimidase for 4 hours at 37° C.
In order to couple the neuramimidase-treated suPAR to a BIAcore sensor chip, 20 μg/ml suPAR in 10 mM sodium acetate (pH 5.0) was injected for 6 minutes at a flow rate of 5 μl per minute using a carboxymethylated dextran matrix (CM5 sensor chip), thereby immobilising approximately 1,500–2,000 resonance units (RU), which correspond to 1–2 ng suPAR/mm^2. The CM5 sensor chip was preactivated with N-hydroxysuccinimide/N-ethyl-N′-[3-([…])propyl]carbodiimide in accordance with the manufacturer's recommendations.
Surface plasmon resonance sensorgrams (RU versus time) were recorded at a flow rate of 10 μl per min at 5° C. using several different concentrations of the ligand (i.e. the relevant peptide or GFD) in the range from 10 to 1000 nM in running buffer (10 mM HEPES, 150 mM NaCl, 3 mM EDTA (pH 7.4) including 0.005% surfactant P-20).
The sensor chip was regenerated at the end of each run by injection of 0.1 M acetic acid, 0.5 M NaCl.
Data from parallel mock coupled flow cells (subjected to the coupling procedure in the presence of buffer only) served as blank sensorgrams for subtraction of changes in bulk refractive index.
The obtained sensorgrams were analysed by non-linear least squares fitting using BIAevaluation 2.0 software (Pharmacia Biosensor, Uppsala, Sweden) assuming single-site ssociation and dissociation models.

[5] = target: uPAR-ATF interaction (Homo sapiens, UniProt Q03405); settings: read-out: apparent inhibition constant; cited from earlier work
Sequence of uPAR-ATF interaction (Q03405 23-305 limits assumed): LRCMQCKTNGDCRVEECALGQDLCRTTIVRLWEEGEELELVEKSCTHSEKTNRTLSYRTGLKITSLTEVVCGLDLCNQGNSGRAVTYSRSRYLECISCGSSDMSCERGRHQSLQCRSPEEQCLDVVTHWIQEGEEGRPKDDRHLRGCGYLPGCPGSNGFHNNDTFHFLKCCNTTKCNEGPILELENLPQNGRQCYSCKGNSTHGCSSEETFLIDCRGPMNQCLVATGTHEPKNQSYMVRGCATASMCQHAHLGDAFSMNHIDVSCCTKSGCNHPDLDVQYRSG

Compound | tolerance: effect on behaviour or well-being [1] | activity of peptide antagonist in mouse serum after dosing [2] | ability to inhibit ATF binding after incubation in mouse serum (stability) [3] | koff [4] [s⁻¹] | Ki [5] [nM] | Relative kdiss ([4]; relative to the Growth Factor Domain of uPA (GFD = 1.0))
CC(C)C[C@H](NC(=O)[C@H](Cc1ccc(O)cc1)NC(=O)[C@@H](CCCNC(=N)N)NC(=O)[C@@H](CO)NC(=O)[C@H](Cc1ccccc1)NC(=O)[C@H](CC1CCCCC1)NC(=O)[C@@H](N)CC(=O)O)C(=O)N[C@@H](Cc1c[nH]c2ccccc12)C(=O)N[C@@H](CO)C(=O)NCC(=O)NCCCC[C@H](NC(=O)CCNC(=O)CNC(=O)[C@H](CO)NC(=O)[C@H](Cc1c[nH]c2ccccc12)NC(=O)[C@H](CC(C)C)NC(=O)[C@H](Cc1ccc(O)cc1)NC(=O)[C@@H](CCCNC(=N)N)NC(=O)[C@@H](CO)NC(=O)[C@H](Cc1ccccc1)NC(=O)[C@H](CC1CCCCC1)NC(=O)[C@@H](N)CC(=O)O)C(=O)O [AE120, α-[DChaFsrYLWSGβA]-ε-[DChaFsrYLWSG]-K] (I: H-D[Cha]F[dS][dR]YLWSG[βAla]K-OH / II: H-D[Cha]F[dS][dR]YLWSG; amide I:12-II:C) | no visible sign of any effect on the behaviour or well-being of the mice | retained its activity in mouse serum for several hours | slight reduction | 3e-05 | – | –
AEPMPHSLNFSQYLWYT [AE78, reference compound] | – | – | lost the majority of its inhibitory activity | 0.0101 | 10 | 72.1
